Measured values as given in article PMC8715119, “Second-generation non-hematopoietic erythropoietin-derived peptide for neuroprotection” (Redox Biology, 2021).

Key:
ERK = assay: Time-series immunoblot of phosphorylated ERK; type: cell-based, rat; settings: PC12 cells; 1 nM; peak at 15 min, below basal at 30 min, then recovery; n = 3
Protocol: (§1) PC12 or HT-22 cells were lysed in 100 mM Tris-Cl (pH 6.8) with 4% SDS. The lysates were loaded onto sodium dodecyl sulfate-polyacrylamide gel electrophoresis (SDS-PAGE) (8–10%), and the proteins were transferred onto the nitrocellulose membrane. The membrane was blocked with 0.1% TBST and 5% non-fat dry milk at 25°C for 30 min. Primary antibodies were diluted in 0.1% TBST and 3% bovine serum albumin (BSA). The primary antibodies included anti-pJAK2 (#3776, Cell Signaling Technology, USA), anti-JAK2 (#3230, Cell Signaling Technology, USA), anti-pSTAT5 (#9351, Cell Signaling Technology, USA), anti-STAT5 ([…], Cell Signaling Technology, USA), anti-pAKT (#9271, Cell Signaling Technology, USA), anti-AKT (#9272, Cell Signaling Technology, USA), anti-pERK (#9101, Cell Signaling Technology, USA) anti-ERK (#9102, Cell Signaling Technology, USA), anti-EPOR (#sc-365662, Santa Cruz Biotechnology, USA), anti-β-Actin (Santa Cruz Biotechnology, USA), anti-Bax (Santa Cruz Biotechnology, USA), anti-cleaved Casp3 (Cell Signaling Technology, USA), and anti-cleaved Parp1 (Cell Signaling Technology, USA).

HT-22 cells [1] = assay: Cell viability after hypoxia and re-oxygenation; type: cell-based, mouse; settings: hypoxia 18 h, re-oxygenation 3 h, treatment 19 h; reEPO 0.5 IU/ml, ML1-h3 1 ng/ml; n = 12
Protocol: (§2) HT-22 cells (kindly provided by Prof. Gil-Saeng Jeong in Keimyung University), an immortalized mouse hippocampal cell line, were cultured at 37°C and 5% CO2 in Dulbecco's modified eagle medium (DMEM, Invitrogen, USA) supplemented with 10% FBS and 1% penicillin/streptomycin at 37°C and 5% CO2.
(§3) Cell viability was evaluated by 3-[(4,5-dimethylthiazol-2-yl)-5,3-carboxymethoxyphenyl]-2-(4-sulfophenyl)-2H tetrazolium, inner salt (MTS) reduction assay (CellTiter 96 Aqueous One Solution Cell Proliferation Assay, Promega, Madison, WI, USA). Briefly, differentiated neuronal-PC12 cells were treated with H2O2 (300 μM) with or without reEPO and peptides for 24 h. The PC12 cells were washed with PBS; 20 ul MTS solution was added to each well with 100 μl PBS, and the cells were incubated for 3 h at 37°C and 5% CO2. The intracellular soluble formazan produced by cellular reduction of the MTS was determined by recording the absorbance at 490 nm using a microplate reader (VersaMax, Molecular Devices, USA). Cell proliferation was also evaluated by the MTS assay. Undifferentiated PC12 cells were seeded into a 96-well plate (5x10^4 cells/well). The next day, the initial cell number was counted; after 48 h, under low FBS concentration (0.5%), with or without reEPO and peptides, cell number was measured by the MTS assay.
The HT-22 cells were seeded onto 96-well or 6-well plates. […]

JAK2 = assay: Time-series immunoblot of phosphorylated JAK2; type: cell-based, rat; settings: undifferentiated PC12 cells; 1 nM; up to 90 min; normalized by JAK2; n = 3
Protocol: as §1

[2] = system: undifferentiated PC12 cells; assay: Cell proliferation (MTS) under low serum; type: cell-based, rat; settings: 0.5% fetal bovine serum, 48 h, reEPO 10 IU/ml, peptides 10 ng/ml, n = 5, Fig. 4c
Protocol: PC12 cells (#CRL-1721, ATCC, USA), a rat pheochromocytoma cell line derived from the adrenal medulla (#CRL-1721, ATCC, USA), were seeded on a dish, which was coated by poly L-lysine (0.01%; Sigma Chemical Co., USA), and grown in RPMI 1640 medium (#11875093, Gibco, USA), supplemented with 10% heat-inactivated horse serum (#26050088, Gibco, USA), 5% fetal bovine serum (FBS) (#SH30919.03, Hyclone, USA), and 1% penicillin/streptomycin at 37°C with 5% CO2. […]
as §3, with “Briefly, differentiated neuronal-PC12 cells were treated with H2O2 (300 μM) with or without reEPO and peptides for 24 h. The PC12 cells were washed with PBS; 20 ul MTS solution was added to each well with 100 μl PBS, and the cells were incubated for 3 h at 37°C and 5% CO2.” left out, “Undifferentiated PC12 cells were seeded into a 96-well plate (5x10^4 cells/well).” left out

HT-22 cells [3] = assay: ROS level by H2DCFDA after hypoxia and re-oxygenation; type: cell-based, mouse; settings: reEPO 0.5 IU/ml, ML1-h3 1 ng/ml, n = 12
Protocol: as §2
The cellular ROS level was measured using 2′,7′-dichlorodihydrofluorescein diacetate (H2DCFDA) (#D399, Invitrogen, USA). The cells were incubated with 5 μM H2DCFDA in PBS for 30 min, washed with PBS, and then resuspended in the medium for 2 h. After treatment of H2O2 without or with reEPO, or peptide, we monitored the oxidative stress by measuring the fluorescence intensities of H2DCFDA by using excitation and emission wavelengths of 485 nm and 535 nm, respectively.
(§4) The HT-22 cells were seeded onto 96-well or 6-well plates. The next day, HT-22 cells were placed inside a sealed air-tight container consisting of an anaeropack (Mitsubishi Gas Company, Tokyo, Japan), which can induce a hypoxic atmosphere by absorbing oxygen and generating carbon dioxide. The cells were maintained in the hypoxic condition at 37°C for 18 h and re-oxygenated for 3 h at 37°C and 5% CO2. Subsequently, the cells were treated with reEPO or the peptides for 19 h before viability analysis.

AKT = assay: Time-series immunoblot of phosphorylated AKT; type: cell-based, rat; settings: PC12 cells; 1 nM; deficient level by 30 min, maintained at 90 min; n = 3
Protocol: as §1

Bax = assay: Immunoblot of Bax after hypoxia and re-oxygenation; type: cell-based, mouse; settings: HT-22 cells; reEPO 0.5 IU/ml, ML1-h3 1 ng/ml; normalized by β-Actin; n = 6
Protocol: as §1
The HT-22 cells were seeded onto 96-well or 6-well plates. The next day, HT-22 cells were placed inside a sealed air-tight container consisting of an anaeropack (Mitsubishi Gas Company, Tokyo, Japan), which can induce a hypoxic atmosphere by absorbing oxygen and generating carbon dioxide. […]

HT-22 cells [4] = assay: TUNEL assay after hypoxia and re-oxygenation; type: cell-based, mouse; settings: hypoxia 18 h, re-oxygenation 3 h; reEPO 0.5 IU/ml, ML1-h3 1 ng/ml; n = 5
Protocol: as §2, §4
We fixed the cells with 4% paraformaldehyde in PBS on a slide at 25°C, washed them with PBS, and then treated them with 3% H2O2 in methanol for 10 min. After washing with PBS, we treated the cells with 0.1% sodium citrate in 0.1% Triton X-100 on sample slides for 2 min on ice and washed again with PBS. Subsequently, we treated the cells with the TUNEL reaction mixture for 60 min at 37°C in the dark. After washing thrice with PBS, 50 μl of TUNEL peroxidase (POD) was added to the slides for 30 min at 37°C in the dark. […]

In the case of “reEPO: Recombinant human EPO (Epoetin-α, CJ HealthCare Corporation)”, the “Level of phosphorylated ERK (pERK) over time” value (ERK) is reported as “acutely increased the level of phosphorylated ERK”, the “Cell viability under H/R” value (HT-22 cells [1]) is reported as “suppressed the loss of cell viability” and the “Level of phosphorylated JAK2 (pJAK2) over time” value (JAK2) is reported as “upregulated the level of phosphorylated JAK2 in ^1007/1008Tyr (pJAK2), an active form of JAK2 at 30–60 min; pJAK2 returned to the basal level at 90 min”. The “Cell proliferation (cell number)” value [2] was “significantly increased the proliferation”, the “ROS level induced by H/R” value (HT-22 cells [3]) was “decreased ROS level induced by H/R” and the “Level of phosphorylated AKT (pAKT) over time” value (AKT) was “gradually reduced phosphorylated AKT”. For the same substance, the “Level of Bax under H/R” value (Bax) was “efficiently reduced the levels of Bax” and the “TUNEL-positive cells under H/R” value (HT-22 cells [4]) was “dramatically decreased the TUNEL-positive cells”.
